How the values were obtained:
Human Factor XIIa = molecular target: T1, Human Factor XIIa (Homo sapiens, UniProt P00748); test: Determination of FXIIa inhibitory activity in vitro (fluorogenic substrate H-DPro-Phe-Arg-AFC); type: biochemical; conditions: 25° C., residual enzyme activity (initial rate)
T1 construct: Human Factor XIIa (Enzyme Research Laboratories) was incubated; purchased Enzyme Research Laboratories
T1 sequence (P00748 373-615 limits assumed): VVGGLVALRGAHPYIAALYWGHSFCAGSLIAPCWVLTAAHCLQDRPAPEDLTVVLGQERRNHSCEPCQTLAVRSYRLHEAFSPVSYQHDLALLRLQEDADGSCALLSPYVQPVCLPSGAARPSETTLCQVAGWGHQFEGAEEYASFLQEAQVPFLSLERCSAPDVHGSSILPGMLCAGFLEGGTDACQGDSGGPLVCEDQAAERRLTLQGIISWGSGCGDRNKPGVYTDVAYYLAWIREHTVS
T1 sequence (P00748 20-372 partner limits assumed): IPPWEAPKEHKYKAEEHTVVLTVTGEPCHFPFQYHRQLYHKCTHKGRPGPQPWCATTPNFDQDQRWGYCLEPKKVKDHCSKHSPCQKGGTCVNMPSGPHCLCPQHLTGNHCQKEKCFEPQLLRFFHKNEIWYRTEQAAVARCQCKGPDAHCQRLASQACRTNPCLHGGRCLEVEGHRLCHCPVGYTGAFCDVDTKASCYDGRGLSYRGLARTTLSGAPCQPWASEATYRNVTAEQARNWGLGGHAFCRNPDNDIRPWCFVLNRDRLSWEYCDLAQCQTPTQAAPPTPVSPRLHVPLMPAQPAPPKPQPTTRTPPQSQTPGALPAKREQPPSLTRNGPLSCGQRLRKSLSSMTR

Human FXIa = molecular target: T2, Human FXIa (Homo sapiens, UniProt P03951); test: Determination of FXIa inhibitory activity in vitro (fluorogenic substrate Z-Gly-Pro-Arg-AFC); type: biochemical; conditions: selectivity, 25° C., residual enzyme activity (initial rate)
T2 construct: Human FXIa (Enzyme Research Laboratories) was incubated; purchased Enzyme Research Laboratories
T2 sequence (P03951 388-625 limits assumed): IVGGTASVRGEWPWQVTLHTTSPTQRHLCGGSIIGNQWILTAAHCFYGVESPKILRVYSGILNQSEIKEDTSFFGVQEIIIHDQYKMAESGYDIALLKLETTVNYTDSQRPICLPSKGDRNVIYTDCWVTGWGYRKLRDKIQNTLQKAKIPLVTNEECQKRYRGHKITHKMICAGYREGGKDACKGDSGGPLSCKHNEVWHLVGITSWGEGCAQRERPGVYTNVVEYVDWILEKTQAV
T2 sequence (P03951 19-387 partner limits assumed): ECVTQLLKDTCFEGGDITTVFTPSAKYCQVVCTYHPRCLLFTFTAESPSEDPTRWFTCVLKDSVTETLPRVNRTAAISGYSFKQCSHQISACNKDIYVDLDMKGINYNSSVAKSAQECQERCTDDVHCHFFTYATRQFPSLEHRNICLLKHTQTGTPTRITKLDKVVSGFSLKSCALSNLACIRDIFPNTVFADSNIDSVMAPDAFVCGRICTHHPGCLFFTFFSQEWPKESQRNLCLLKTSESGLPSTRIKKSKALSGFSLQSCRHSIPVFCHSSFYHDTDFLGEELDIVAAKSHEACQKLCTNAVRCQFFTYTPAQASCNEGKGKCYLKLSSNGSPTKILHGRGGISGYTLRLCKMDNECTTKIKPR

Row | IC50 (Human Factor XIIa) | IC50 (Human FXIa) | SMILES
1 | 1 to 3 µM | 76.4 µM | Nc1nccc2cc(CNC(=O)c3cc(Cl)c(CNCC4CCN(c5ccncc5)CC4)s3)ccc12 [Example 2.36, N-[(1-Aminoisoquinolin-6-yl)methyl]-4-chloro-5-[({[1-(pyridin-4-yl)piperidin-4-yl]methyl}amino)methyl]thiophene-2-carboxamide]
2 | 3 to 10 µM | > 40 µM | Nc1nccc2cc(CNC(=O)c3cc(Cl)c(CNCc4ccc(N5CCCC5=O)cc4)s3)ccc12 [Example 2.58]
3 | 3 to 10 µM | > 40 µM | Nc1nccc2cc(CNC(=O)c3cc(Cl)c(CN4CCN(c5ccncc5)CC4)s3)ccc12 [Example 5.12]
4 | 3 to 10 µM | > 40 µM | Nc1nccc2cc(CNC(=O)c3cc(Cl)c(CN4CCN(c5cccnc5)CC4)s3)ccc12 [Example 5.16]
5 | 10 to 40 µM | > 40 µM | Nc1nccc2cc(CNC(=O)c3cc(Cl)c(CN4CCN(c5ccccn5)CC4)s3)ccc12 [Example 5.17]
6 | 10 to 40 µM | 37.7 µM | Nc1nccc2cc(CNC(=O)c3cc(Cl)c(CN4CC[C@@H](Nc5cccnc5)C4)s3)ccc12 [Example 5.18, N-[(1-Amino-6-isoquinolyl)methyl]-4-chloro-5-[[(3R)-3-(3-pyridylamino)pyrrolidin-1-yl]methyl]thiophene-2-carboxamide]
7 | 3 to 10 µM | 29.3 µM | Nc1nccc2cc(CNC(=O)c3cc(Cl)c(CN4Cc5ccncc5C4)s3)ccc12 [Example 5.19]
8 | 10 to 40 µM | > 40 µM | Cc1cc(C(=O)NCc2ccc3c(N)nccc3c2)sc1CN1CCN(c2ccncc2)CC1 [Example 5.20, N-[(1-Amino-6-isoquinolyl)methyl]-4-methyl-5-[[4-(4-pyridyl)piperazin-1-yl]methyl]thiophene-2-carboxamide]
9 | 10 to 40 µM | > 40 µM | Nc1nccc2cc(CNC(=O)c3cc(Cl)c(CN4CC[C@H](Nc5cccnc5)C4)s3)ccc12 [Example 5.21]
10 | 3 to 10 µM | > 40 µM | Nc1nccc2cc(CNC(=O)c3cc(Cl)c(CN4CCc5ccncc5C4)s3)ccc12 [Example 5.22]
11 | 10 to 40 µM | 8.35 µM | Nc1nccc2c1CC[C@H]2NC(=O)c1cc(Cl)c(CN2CCN(c3ccncc3)CC2)s1 [Example 5.23, N-[(5R)-1-Amino-6,7-dihydro-5H-cyclopenta[c]pyridin-5-yl]-4-chloro-5-[[4-(4-pyridyl)piperazin-1-yl]methyl]thiophene-2-carboxamide]
12 | 3 to 10 µM | > 40 µM | Cc1cc(C(=O)NCc2ccc3c(N)nccc3c2)sc1CN1CCCN(c2ccncc2)CC1 [Example 5.24, N-((1-Aminoisoquinolin-6-yl)methyl)-4-methyl-5-((4-(pyridin-4-yl)-1,4-diazepan-1-yl)methyl) thiophene-2-carboxamide]
13 | 10 to 40 µM | > 40 µM | Cc1cc(C(=O)NCc2ccc3c(N)nccc3c2)sc1CN1CC(Oc2ccncc2)C1 [Example 5.25, N-[(1-Amino-6-isoquinolyl)methyl]-4-methyl-5-[[3-(4-pyridyloxy)azetidin-1-yl]methyl]thiophene-2-carboxamide]
14 | 10 to 40 µM | > 40 µM | Cc1cc(C(=O)NCc2ccc3c(N)nccc3c2)sc1CN1CCN(c2ccncn2)CC1 [Example 5.26, N-((1-Aminoisoquinolin-6-yl)methyl)-4-methyl-5-((4-(pyrimidin-4-yl)piperazin-1-yl)methyl) thiophene-2-carboxamide]
15 | 10 to 40 µM | > 40 µM | Cc1cc(C(=O)NCc2ccc3c(N)nccc3c2)sc1CN1CCN(c2ccn(C)c(=O)c2)CC1 [Example 5.27]
16 | 10 to 40 µM | > 40 µM | Cc1cc(C(=O)NCc2ccc3c(N)nccc3c2)sc1CN1CCN(c2cnn(C)c2)CC1 [Example 5.28]
17 | 10 to 40 µM | 38.5 µM | Cc1cc(C(=O)NCc2ccc3c(N)nccc3c2)sc1CN1CCN(c2cc[nH]c(=O)c2)CC1 [Example 5.29]
18 | 1 to 3 µM | > 40 µM | CNS(=O)(=O)c1sc(C(=O)NCc2ccc3c(N)nccc3c2)cc1Br [Example 25.07]
19 | 10 to 40 µM | > 40 µM | Nc1nccc2cc(CNC(=O)c3cc(Cl)c(Cc4ccccc4)s3)ccc12 [Example 25.08]
20 | 10 to 40 µM | > 40 µM | CN1CCC(c2ccc(C(=O)NCc3ccc4c(N)nccc4c3)s2)CC1 [Example 25.09]
21 | 3 to 10 µM | > 40 µM | CN1CCC(Cc2sc(C(=O)NCc3ccc4c(N)nccc4c3)cc2Cl)CC1 [Example 25.10]
22 | 3 to 10 µM | > 40 µM | Cc1cc(CN)cc(C)c1CNC(=O)c1cc(Cl)c(C)s1 [Example 25.102, N-(4-(Aminomethyl)-2,6-dimethylbenzyl)-4-chloro-5-methylthiophene-2-carboxamide]
23 | 1 to 3 µM | > 40 µM | Nc1nccc2cc(CNC(=O)c3cc4c(Cl)cccc4s3)ccc12 [Example 25.203, N-((1-Aminoisoquinolin-6-yl)methyl)-4-chlorobenzo[b]thiophene-2-carboxamide]

Row | IC50 (Human Factor XIIa) | IC50 (Human FXIa) | SMILES
24 | 1 to 3 µM | > 40 µM | Nc1nccc2cc(CNC(=O)c3cc4c(Cl)cccc4[nH]3)ccc12 [Example 25.207]
25 | 3 to 10 µM | > 40 µM | CN1CCC(CNc2cnn(C)c2C(=O)NCc2ccc3c(N)nccc3c2)CC1 [Example 26.01]
26 | 10 to 40 µM | > 40 µM | Cc1n[nH]c(C(=O)NCc2ccc3c(N)nccc3c2)c1NCC1CCN(C)CC1 [Example 26.02]
27 | 10 to 40 µM | > 40 µM | Cc1cc(OCC2CCN(C)CC2)c(C(=O)NCc2ccc3c(N)nccc3c2)s1 [Example 26.04]
28 | 1 to 3 µM | > 40 µM | Cc1cc(NCC2CCN(C)CC2)c(C(=O)NCc2ccc3c(N)nccc3c2)s1 [Example 26.05, N-((1-Aminoisoquinolin-6-yl)methyl)-5-methyl-3-(((1-methylpiperidin-4-yl)methyl)amino) thiophene-2-carboxamide]
29 | 10 to 40 µM | > 40 µM | Cc1csc(C(=O)NCc2ccc3c(N)nccc3c2)c1NC(=O)C1CCN(C)CC1 [Example 26.07]
30 | 1 to 3 µM | > 40 µM | Cc1c(Cl)sc(C(=O)NCc2ccc3c(N)nccc3c2)c1NCC1CCN(C)CC1 [Example 26.09]
31 | 1 to 3 µM | > 40 µM | Cc1sc(C(=O)NCc2ccc3c(N)nccc3c2)c(NCC2CCN(C)CC2)c1Cl [Example 26.10, N-((1-Aminoisoquinolin-6-yl)methyl)-4-chloro-5-methyl-3-(((1-methylpiperidin-4-yl)methyl)amino) thiophene-2-carboxamide]
32 | 10 to 40 µM |  | Cc1nsc(C(=O)NCc2ccc3c(N)nccc3c2)c1NCC1CCNCC1 [Example 26.14]
33 | 3 to 10 µM |  | Cc1nsc(C(=O)NCc2ccc3c(N)nccc3c2)c1NCC1CCN(C)CC1 [Example 26.15]
34 | 1 to 3 µM |  | CN1CCC(CNc2ncsc2C(=O)NCc2ccc3c(N)nccc3c2)CC1 [Example 26.16, N-((1-Aminoisoquinolin-6-yl)methyl)-4-(((1-methylpiperidin-4-yl)methyl)amino)thiazole-5-carboxamide]
35 | 10 to 40 µM | > 40 µM | CC(C)(C)OC(=O)N1CCC(Cn2nc(Cl)cc2C(=O)NCc2ccc3c(N)nccc3c2)CC1 [Example 35.01]
36 | 3 to 10 µM | > 40 µM | Nc1nccc2cc(CNC(=O)c3cc(Cl)nn3CC3CCNCC3)ccc12 [Example 35.02]
37 | 3 to 10 µM | > 40 µM | CCN1CCC(Cn2nc(Cl)cc2C(=O)NCc2ccc3c(N)nccc3c2)CC1 [Example 35.03]
38 | < 1 µM | > 40 µM | CN1CCC(CCn2nc(Cl)cc2C(=O)NCc2ccc3c(N)nccc3c2)CC1 [Example 35.04, N-((1-Aminoisoquinolin-6-yl)methyl)-3-chloro-1-(2-(1-methylpiperidin-4-yl)ethyl)-1H-pyrazole-5-carboxamide]
39 | 1 to 3 µM |  | CN1CCC(CCCn2nccc2C(=O)NCc2ccc3c(N)nccc3c2)CC1 [Example 35.08]
40 | 10 to 40 µM |  | CCOc1ccc(Cn2nccc2C(=O)NCc2ccc3c(N)nccc3c2)cc1 [Example 35.09]
41 | 10 to 40 µM |  | CN1CCC(CCn2nccc2C(=O)NCc2cc3c(N)nccc3s2)CC1 [Example 46.01, N-((4-aminothieno[3,2-c]pyridin-2-yl)methyl)-1-(2-(1-methylpiperidin-4-yl)ethyl)-1H-pyrazole-5-carboxamide]
42 | 10 to 40 µM |  | Cc1c(C(=O)NCc2ccc3c(N)nccc3c2)cc(-c2ccccc2)n1CCCN1CCOCC1 [Example 51.01]
43 | 1 to 3 µM |  | CN1CCC(CCn2ccc(C(=O)NCc3ccc4c(N)nccc4c3)n2)CC1 [Example 51.06]
44 | 1 to 3 µM |  | CN1CCC(CCCn2ccc(C(=O)NCc3ccc4c(N)nccc4c3)n2)CC1 [Example 51.07]
45 | 10 to 40 µM |  | CC(=O)N1CCC(CCn2ccc(C(=O)NCc3ccc4c(N)nccc4c3)n2)CC1 [Example 51.08]

Row | SMILES | IC50 (Human Factor XIIa) | IC50 (Human FXIa)
46 | CN1CCC(Cn2c(C(=O)NCc3ccc4c(N)nccc4c3)cc3ccccc32)CC1 [Example 25.201] | 3 to 10 µM | > 40 µM
47 | CCN1CCC(Cn2c(C(=O)NCc3ccc4c(N)nccc4c3)nc3ccccc32)CC1 [Example 25.202] | 1 to 3 µM | > 40 µM

From patent US20220289727A1, “ENZYME INHIBITORS” (KALVISTA PHARMACEUTICALS LIMITED, priority 2019, published 2022)
